# Test results from patent US9409983B2, “Methods and compositions involving PBEF inhibitors for lung inflammation conditions and diseases” (The Board of Trustess of the University of Illinois, priority 2009, dated 2016).
# “Also recorded” adds a separate entry of the source.
# Tested on: C57BL/6 mice
# Experiment: Intratracheal rhPBEF instillation in spontaneously breathing mice (BAL, tissue albumin, cytokines, histology)
# Format: in vivo, mouse
# Method: The first VILI model was designed to produce limited lung injury (VILIa, tidal volume 30 ml/kg), thus allowing assessment of potential synergy with rhPBEF challenge. Male C57BL/6J B6 mice were anesthetized with ketamine/acepromazine, intubated and administered rhPBEF (20 μg/mouse) via an intratracheal (IT) route ˜30 min before ventilator placement (room air, tidal volume 30 ml/kg, 65 breaths/minute, 0 cm H2O PEEP) for 4 hr as previously described (Nonas et al., 2007; Moitra et al., 2007). Groups included a spontaneous breathing group (SB), a spontaneous breathing group challenged with rhPBEF (SB-rhPBEF), a high tidal ventilation group (VILIa), and a high tidal ventilation group with rhPBEF challenge (VILIa-rhPBEF) (n=4-6 all groups).
# BAL fluid recovered as we previously described was used for multiple assays including total BAL protein, and BAL cell differentials (Peng et al., 2004). Tissue albumin content was assessed as previously described (Nonas et al., 2007). Cytokine levels in BAL fluid (IL-1β, IL-6, KC, MIP2, TNF-α) were analyzed by multiplex assays (Bio-Rad, Hercules, Calif., USA). BAL PBEF levels were assayed by a C-terminal ELISA (Phoenix Pharmaceuticals Inc. Belmont, Calif.) and analyzed using the SoftmaxPRO software (Molecular Devices Corp). (See Supplemental Methods).
# We utilized two experimental models of ventilator-induce lung injury in these experiments. Our first approach (VILIa) utilized a VILI protocol with a tidal volume of 30 ml/kg designed to produce limited lung injury in order to allow assessment of potential synergism between delivered PBEF and mechanical ventilation-induced lung injury. Male C57BL/6J mice (8-12 wk old, 24.7±2.0 g) were weighed, anesthetized with ketamine/acepromazine, intubated using a 20 gauge catheter (Medex, Inc, Carlsbad, Calif.) and administered recombinant PBEF ([…] of water) via an intratracheal (IT) route ˜30 min before being placed on mechanical ventilation as we have previously described (Peng et al., 2004). Mice were then connected to Harvard Apparatus ventilator (Boston, Mass.) at room air, tidal volume of 30 ml/kg, 65 breaths/minute, and positive expiratory pressure (PEEP) 0 cm H2O for 4 hr. Groups of mice were randomly allocated to either the spontaneous breathing group (SB) (n=4), the spontaneous breathing challenged with IT rhPBEF group (SB-rhPBEF) (n=6), the high tidal ventilation group (VILIa) (n=6), or high tidal ventilation with rhPBEF group (VILIa-rhPBEF) (n=6). Normal saline (0.2 cc) was given via intraperitoneal injection at the beginning and 2 hours later to all ventilated mice and peak inspiratory pressure was monitored continuously. Temperature was maintained with heat blanket to all mice during experiment.
# Mice underwent bronchioalveolar lavage (BAL) of both lungs with Hank's balanced salt solution (1 mL/mouse), and the recovered BAL fluid was used for assays as we have previously described (Peng et al., 2004). Total protein was measured using the Bio-Rad DC Protein Assay (Bio-Rad Laboratories, Hercules, Calif.) (Peng et al., 2004). Protein results were expressed as mg/ml to allow for comparison to other studies. Lavage samples were centrifuged at 500×g on a refrigerated micro centrifuge for 20 min. The supernatant was decanted and aliquot for protein assays. The BAL cells were resuspended in Hank's balanced salt solution and counted using a hemacytometer using standard techniques.
# Re-suspended BAL cells from lung lavage were centrifuged using a Shandon Cytospin-2 at 600 RPM for 15 min, fixed by air-drying, and stained with Diff-Quik dye for differential counts (Peng et al., 2004). Stained cell slides were evaluated and differentially counted for each individual animal (lymphocyte, neutrophil or a macrophage).
# BAL fluid for cytokine measurements was stored at −80° C. until analysis. […]
# [1] = spontaneously breathing mice, rhPBEF
substance,measurement,setting,value
"rhPBEF: Recombinant human soluble PBEF/visfatin, a 52 kDa protein containing 465 amino acid residues, purchased from PeproTech",BAL IL-1β,SB-rhPBEF,55 ± 22 pg/mL
same,BAL TNF-α,SB-rhPBEF,262 ± 94 pg/mL
same,histologic assessment of lung tissue (hematoxylin and eosin),"SB-rhPBEF, 20 μg/mouse in 30 μl saline intratracheal",mild inflammation; also recorded: macrophage & neutrophil infiltration and edematous alveolar areas
same,BAL IL-6,[1],319 ± 67 pg/mL
same,BAL KC,[1],1388 ± 169 pg/mL
same,BAL MIP-2,[1],29026 ± 762 pg/mL
